Laboratory results: the NIST ThermoML archive (doi:10.1016/j.jct.2016.11.009)

Test: xn = mol fraction of the nth substance listed
Conditions: Fluid (supercritical or subcritical phases), Buoyancy - hydrostatic balance with magnetic suspension - one sinker

C [methane] + O=C=O
Conditions | mass density [kg/m3]
305.24 K, 17994 kPa, x2 = 0.3997 | 283.653
308.05 K, 7997 kPa, x2 = 0.8988 | 229.008
308.06 K, 6995 kPa, x2 = 0.8988 | 175.453
308.08 K, 10996 kPa, x2 = 0.3997 | 155.394
308.09 K, 8982 kPa, x2 = 0.8988 | 306.981
308.11 K, 7002 kPa, x2 = 0.6015 | 114.28
308.11 K, 7996 kPa, x2 = 0.2017 | 78.731
308.11 K, 18002 kPa, x2 = 0.8988 | 711.774
308.12 K, 8003 kPa, x2 = 0.6015 | 136.504
308.12 K, 11997 kPa, x2 = 0.7985 | 401.005
308.12 K, 18001 kPa, x2 = 0.2017 | 195.388
308.12 K, 18004 kPa, x2 = 0.0998 | 162.496
308.13 K, 8003 kPa, x2 = 0.3997 | 104.538
308.13 K, 9004 kPa, x2 = 0.2017 | 90.207
308.13 K, 10002 kPa, x2 = 0.2017 | 101.87
308.13 K, 11000 kPa, x2 = 0.0998 | 95.867
308.13 K, 11001 kPa, x2 = 0.6015 | 214.588
308.13 K, 15001 kPa, x2 = 0.7985 | 523.511
308.13 K, 15007 kPa, x2 = 0.6015 | 328.628
308.14 K, 5002 kPa, x2 = 0.2017 | 46.531
308.14 K, 5997 kPa, x2 = 0.6015 | 93.812
308.14 K, 6001 kPa, x2 = 0.3997 | 74.193
308.14 K, 8998 kPa, x2 = 0.6015 | 160.546
308.14 K, 11000 kPa, x2 = 0.2017 | 113.723
308.14 K, 11000 kPa, x2 = 0.7985 | 342.357
308.14 K, 12002 kPa, x2 = 0.6015 | 243.454
308.14 K, 14996 kPa, x2 = 0.3997 | 227.135
308.15 K, 3000 kPa, x2 = 0.0998 | 23.193
308.15 K, 6999 kPa, x2 = 0.0998 | 57.796
308.15 K, 8996 kPa, x2 = 0.3997 | 120.739
308.15 K, 14997 kPa, x2 = 0.0998 | 134.77
308.16 K, 4002 kPa, x2 = 0.2017 | 36.486
308.16 K, 4004 kPa, x2 = 0.6015 | 57.94
308.16 K, 4006 kPa, x2 = 0.7985 | 70.911
308.16 K, 5006 kPa, x2 = 0.3997 | 60.225
308.16 K, 9001 kPa, x2 = 0.7985 | 229.843
308.16 K, 9993 kPa, x2 = 0.8988 | 417.764
308.16 K, 10002 kPa, x2 = 0.6015 | 186.699
308.16 K, 11997 kPa, x2 = 0.0998 | 105.588
308.16 K, 15001 kPa, x2 = 0.2017 | 161.57
308.16 K, 17997 kPa, x2 = 0.3997 | 276.178
308.17 K, 3998 kPa, x2 = 0.0998 | 31.42
308.17 K, 5006 kPa, x2 = 0.7985 | 93.74
308.17 K, 9004 kPa, x2 = 0.0998 | 76.501
308.17 K, 9994 kPa, x2 = 0.3997 | 137.721
308.17 K, 18002 kPa, x2 = 0.7985 | 590.479
308.18 K, 6001 kPa, x2 = 0.2017 | 56.895
308.18 K, 6999 kPa, x2 = 0.2017 | 67.631
308.18 K, 8000 kPa, x2 = 0.7985 | 185.875
308.18 K, 9999 kPa, x2 = 0.0998 | 86.118
308.19 K, 6002 kPa, x2 = 0.0998 | 48.761
308.19 K, 6002 kPa, x2 = 0.7985 | 119.651
308.19 K, 18000 kPa, x2 = 0.6015 | 395.269
308.2 K, 11998 kPa, x2 = 0.2017 | 125.636
308.21 K, 5001 kPa, x2 = 0.0998 | 39.985
308.21 K, 7002 kPa, x2 = 0.7985 | 149.932
308.22 K, 5002 kPa, x2 = 0.8988 | 104.568
308.22 K, 5006 kPa, x2 = 0.6015 | 75.217
308.22 K, 7001 kPa, x2 = 0.3997 | 88.937
308.22 K, 10003 kPa, x2 = 0.7985 | 282.745
308.23 K, 4004 kPa, x2 = 0.8988 | 78.335
308.23 K, 5998 kPa, x2 = 0.8988 | 135.871
308.23 K, 12000 kPa, x2 = 0.3997 | 173.174
308.24 K, 8000 kPa, x2 = 0.0998 | 67.015
308.24 K, 11004 kPa, x2 = 0.8988 | 513.225
308.26 K, 4003 kPa, x2 = 0.3997 | 46.849
308.26 K, 14998 kPa, x2 = 0.8988 | 660.797
308.34 K, 11928 kPa, x2 = 0.8988 | 563.033
